molecular target: T1, hTLR9 (Homo sapiens, UniProt Q9NR96); test: HEK293-Blue-hTLR-9 cells assay (SEAP reporter, ODN2006 stimulation); format: cell-based; parameters: host or cells: HEK293 (HEK-Blue hTLR9); details: HEK293-Blue-hTLR9 cells, ODN2006, 20 hrs; read-out: HEK/hTLR9 IC50
T1 sequence (Q9NR96 26-1032): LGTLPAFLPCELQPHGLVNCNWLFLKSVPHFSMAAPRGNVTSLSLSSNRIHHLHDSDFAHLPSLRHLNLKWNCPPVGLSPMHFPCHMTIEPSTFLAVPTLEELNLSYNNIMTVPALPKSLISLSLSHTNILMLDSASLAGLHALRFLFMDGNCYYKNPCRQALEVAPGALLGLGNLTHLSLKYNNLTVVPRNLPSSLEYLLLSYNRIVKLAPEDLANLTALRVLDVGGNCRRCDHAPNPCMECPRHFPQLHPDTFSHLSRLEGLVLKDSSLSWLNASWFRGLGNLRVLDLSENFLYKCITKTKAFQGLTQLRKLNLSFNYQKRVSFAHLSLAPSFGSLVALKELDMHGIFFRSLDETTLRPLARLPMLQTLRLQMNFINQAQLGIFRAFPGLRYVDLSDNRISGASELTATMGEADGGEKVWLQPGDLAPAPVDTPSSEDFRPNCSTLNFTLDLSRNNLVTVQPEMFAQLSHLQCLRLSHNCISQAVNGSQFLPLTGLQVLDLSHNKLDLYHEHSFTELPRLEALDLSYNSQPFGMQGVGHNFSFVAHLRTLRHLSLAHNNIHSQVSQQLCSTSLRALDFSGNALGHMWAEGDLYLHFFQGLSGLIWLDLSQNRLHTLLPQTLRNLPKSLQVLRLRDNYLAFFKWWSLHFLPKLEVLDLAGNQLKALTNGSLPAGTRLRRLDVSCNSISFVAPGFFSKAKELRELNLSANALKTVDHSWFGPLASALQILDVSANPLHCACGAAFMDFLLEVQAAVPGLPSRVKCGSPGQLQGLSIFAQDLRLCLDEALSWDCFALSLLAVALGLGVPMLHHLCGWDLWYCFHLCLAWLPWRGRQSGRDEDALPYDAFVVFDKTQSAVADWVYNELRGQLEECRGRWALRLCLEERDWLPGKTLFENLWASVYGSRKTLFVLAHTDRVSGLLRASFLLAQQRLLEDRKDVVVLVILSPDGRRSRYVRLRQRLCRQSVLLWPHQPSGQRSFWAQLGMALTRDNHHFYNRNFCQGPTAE
Method in brief: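 HEK293-Blue-hTLR9 cells with NF-κB/AP-1-driven SEAP reporter treated with serially diluted compound (1% DMSO final) plus ODN2006 for 20 h at 37 °C. Supernatant SEAP measured with QUANTI-Blue, 2 h at 37 °C, absorbance 620–655 nm; antagonism seen as reduced reporter signal.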

SMILES	IC50 [µM]
COC1CNC[C@H]1Nc1cccc(N2CCN(C[C@H]3CN(c4ccc(C#N)c5ncccc45)C[C@@H](C)O3)CC2)n1 (stereo in doubt) [Example 39, 5-[(2S,6R)-2-[[4-[6-[[(3R,4R)-4-methoxypyrrolidin-3-yl]amino]-2-pyridyl]piperazin-1-yl]methyl]-6-methyl-morpholin-4-yl]quinoline-8-carbonitrile]	0.104
C[C@@H]1CN(c2cc(=O)n(C)c3ncccc23)C[C@H](CN2CC(c3ccc(N4CC(F)[C@H](N)C4)cc3)C2)O1 (stereo in doubt) [Example 174, 4-[(2S,6R)-2-[[3-[4-[(3R,4R)-3-amino-4-fluoro-pyrrolidin-1-yl]phenyl]azetidin-1-yl]methyl]-6-methyl-morpholin-4-yl]-1-methyl-1,8-naphthyridin-2-one]	0.086
C[C@@H]1CN(c2ccc(C#N)n3ncc(F)c23)C[C@H](CN2CCN(c3ccc(C4CNCCO4)cc3F)CC2)O1 (stereo in doubt) [Example 183, 3-fluoro-4-[(2S,6R)-2-[[4-[2-fluoro-4-[(2S)-morpholin-2-yl]phenyl]piperazin-1-yl]methyl]-6-methyl-morpholin-4-yl]pyrazolo[1,5-a]pyridine-7-carbonitrile]	0.12
C[C@@H]1CN(c2ccc(C#N)c3ncccc23)C[C@H](CN2CCN(c3ccc(N4CCNCC4)cn3)CC2)O1 [Example 8, 5-[(2R,6S)-2-methyl-6-[[4-(5-piperazin-1-yl-2-pyridyl)piperazin-1-yl]methyl]morpholin-4-yl]quinoline-8-carbonitrile]	0.093
C[C@@H]1CN(c2ccc(C#N)c3ncccc23)C[C@H](CN2CCN(c3cccc(N4CCNCC4)n3)CC2)O1 [Example 10, 5-[(2R,6S)-2-methyl-6-[[4-(6-piperazin-1-yl-2-pyridyl)piperazin-1-yl]methyl]morpholin-4-yl]quinoline-8-carbonitrile]	0.105
C[C@@H]1CN(c2ccc(C#N)c3ncccc23)C[C@H](CN2CCC(C#N)(c3ccc(N4CCNCC4)cc3)CC2)O1 [Example 11, 5-[(2S,6R)-2-[[4-cyano-4-(4-piperazin-1-ylphenyl)-1-piperidyl]methyl]-6-methyl-morpholin-4-yl]quinoline-8-carbonitrile]	0.092
C[C@@H]1CN(c2ccc(C#N)c3ncccc23)C[C@H](CN2CCN(c3ccc(N4CCNCC4)nc3)CC2)O1 [Example 13, 5-[(2R,6S)-2-methyl-6-[[4-(6-piperazin-1-yl-3-pyridyl)piperazin-1-yl]methyl]morpholin-4-yl]quinoline-8-carbonitrile]	0.142
C[C@@H]1CN(c2ccc(C#N)c3ncccc23)C[C@H](CN2CCN(c3ncc(N4CCNCC4)cn3)CC2)O1 [Example 17, 5-[(2R,6S)-2-methyl-6-[[4-(5-piperazin-1-ylpyrimidin-2-yl)piperazin-1-yl]methyl]morpholin-4-yl]quinoline-8-carbonitrile]	0.186
C[C@@H]1CN(c2ccc(C#N)c3ncccc23)C[C@H](CN2CCN(c3ccc([C@@H]4CNCCO4)cc3)CC2)O1 [Example 19, 5-[(2R,6S)-2-methyl-6-[[4-[4-[(2R)-morpholin-2-yl]phenyl]piperazin-1-yl]methyl]morpholin-4-yl]quinoline-8-carbonitrile]	0.091

Stronger by IC50, values ahead:

IC50 [µM]	SMILES
0.032	CO[C@H]1CN(c2nc(C)cc(N3CCN(C[C@H]4CN(c5ccc(C#N)c6ncccc56)C[C@@H](C)O4)CC3)n2)CC1N (relative stereo) [Example 59, 5-[(2R,6S)-2-methyl-6-[[4-[6-methyl-2-[trans-3-amino-4-methoxy-pyrrolidin-1-yl]pyrimidin-4-yl]piperazin-1-yl]methyl]morpholin-4-yl]quinoline-8-carbonitrile]
0.032	COC1CN(c2nccc(N3CCN(C[C@H]4CN(c5ccc(C#N)c6ncccc56)C[C@@H](C)O4)CC3)n2)C[C@H]1N (stereo in doubt) [Example 52, 5-[(2S,6R)-2-[[4-[2-[(3R,4R)-3-amino-4-methoxy-pyrrolidin-1-yl]pyrimidin-4-yl]piperazin-1-yl]methyl]-6-methyl-morpholin-4-yl]quinoline-8-carbonitrile]
0.032	CO[C@H]1CN(c2nccc(N3CCN(C[C@H]4CN(c5ccc(C#N)c6ncccc56)C[C@@H](C)O4)CC3)n2)CC1N (stereo in doubt) [Example 53, 5-[(2S,6R)-2-[[4-[2-[(3S,4S)-3-amino-4-methoxy-pyrrolidin-1-yl]pyrimidin-4-yl]piperazin-1-yl]methyl]-6-methyl-morpholin-4-yl]quinoline-8-carbonitrile]
0.034	Cc1cc(N2CCN(C[C@H]3CN(c4ccc(C#N)c5ncccc45)C[C@@H](C)O3)CC2)nc(N2CC(N)C(F)C2)n1 (stereo in doubt) [Example 54, 5-[(2S,6R)-2-[[4-[2-[(3S,4R)-3-amino-4-fluoro-pyrrolidin-1-yl]-6-methyl-pyrimidin-4-yl]piperazin-1-yl]methyl]-6-methyl-morpholin-4-yl]quinoline-8-carbonitrile]
0.057	COC1CN(c2ccc(C3CN(C[C@H]4CN(c5cc(=O)n(C)c6ncccc56)C[C@@H](C)O4)C3)cc2)C[C@H]1N (stereo in doubt) [Example 172, 4-[(2S,6R)-2-[[3-[4-[(3R,4R)-3-amino-4-methoxy-pyrrolidin-1-yl]phenyl]azetidin-1-yl]methyl]-6-methyl-morpholin-4-yl]-1-methyl-1,8-naphthyridin-2-one]
0.051	C[C@@H]1CN(c2ccc(C#N)c3ncccc23)C[C@H](CN2CCN(c3cncc(N4CCNCC4)c3)CC2)O1 [Example 7, 5-[(2R,6S)-2-methyl-6-[[4-(5-piperazin-1-yl-3-pyridyl)piperazin-1-yl]methyl]morpholin-4-yl]quinoline-8-carbonitrile]
0.032	C[C@@H]1CN(c2ccc(C#N)c3ncccc23)C[C@H](CN2CCN(c3cc(N4CCNCC4)ccn3)CC2)O1 [Example 9, 5-[(2R,6S)-2-methyl-6-[[4-(4-piperazin-1-yl-2-pyridyl)piperazin-1-yl]methyl]morpholin-4-yl]quinoline-8-carbonitrile]
0.032	C[C@@H]1CN(c2ccc(C#N)c3ncccc23)C[C@H](CN2CCN(c3cnc(N4CCNCC4)nc3)CC2)O1 [Example 12, 5-[(2R,6S)-2-methyl-6-[[4-(2-piperazin-1-ylpyrimidin-5-yl)piperazin-1-yl]methyl]morpholin-4-yl]quinoline-8-carbonitrile]
0.032	C[C@@H]1CN(c2ccc(C#N)c3ncccc23)C[C@H](CN2CCN(c3nccc(N4CCNCC4)n3)CC2)O1 [Example 14, 5-[(2R,6S)-2-methyl-6-[[4-(4-piperazin-1-ylpyrimidin-2-yl)piperazin-1-yl]methyl]morpholin-4-yl]quinoline-8-carbonitrile]
0.036	C[C@@H]1CN(c2ccc(C#N)c3ncccc23)C[C@H](CN2CCN(c3ccnc(N4CCNCC4)n3)CC2)O1 [Example 15, 5-[(2R,6S)-2-methyl-6-[[4-(2-piperazin-1-ylpyrimidin-4-yl)piperazin-1-yl]methyl]morpholin-4-yl]quinoline-8-carbonitrile]
0.052	C[C@@H]1CN(c2ccc(C#N)c3ncccc23)C[C@H](CN2CCN(c3cc(N4CCNCC4)ncn3)CC2)O1 [Example 18, 5-[(2R,6S)-2-methyl-6-[[4-(6-piperazin-1-ylpyrimidin-4-yl)piperazin-1-yl]methyl]morpholin-4-yl]quinoline-8-carbonitrile]
